The values below are quoted from earlier work in PMC10649714, “Development and Identification of Novel α-Glucosidase Inhibitory Peptides from Mulberry Leaves” (Foods, 2023).

Sequence of α-glucosidase (P53341 whole entry, the tested form may be a part): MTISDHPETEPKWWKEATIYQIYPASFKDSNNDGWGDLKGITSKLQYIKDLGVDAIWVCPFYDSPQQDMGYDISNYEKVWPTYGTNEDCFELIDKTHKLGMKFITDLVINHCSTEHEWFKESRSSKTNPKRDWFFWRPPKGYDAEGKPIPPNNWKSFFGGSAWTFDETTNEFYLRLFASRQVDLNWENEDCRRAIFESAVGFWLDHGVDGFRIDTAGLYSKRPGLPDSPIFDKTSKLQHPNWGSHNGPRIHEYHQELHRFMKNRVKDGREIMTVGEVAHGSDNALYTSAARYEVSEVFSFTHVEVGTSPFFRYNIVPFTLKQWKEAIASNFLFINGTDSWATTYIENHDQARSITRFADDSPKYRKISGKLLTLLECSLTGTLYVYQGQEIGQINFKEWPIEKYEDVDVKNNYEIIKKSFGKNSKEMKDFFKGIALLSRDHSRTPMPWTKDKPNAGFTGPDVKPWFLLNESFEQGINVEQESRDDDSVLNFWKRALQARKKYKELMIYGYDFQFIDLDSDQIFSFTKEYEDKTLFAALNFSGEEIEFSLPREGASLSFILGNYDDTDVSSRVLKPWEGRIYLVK

In one series the test system is α-glucosidase (PDB ID: 5ZCE).
Details: not given
An excerpt: All hydrogen bonds in this complex with a length less than 3.5 Å were considered to make a close contact, and the binding energy obtained was −8.78 kcal/mol. […] Along with other interaction forces, the binding energy was −8.75 kcal/mol. In addition, […] formed seven hydrogen bonds a ...
Turning to `C[C@@H]1O[C@@H](O[C@H]2C(=O)c3c(O)cc(O)cc3O[C@@H]2c2ccc(O)c(O)c2)[C@H](O)[C@H](O)[C@H]1O` [astilbin], the “binding sites with α-glucosidase” value was “ASP-60, ASP-199, HIS-203, GLN-256, and GLN-328”. `O=c1c(O)c(-c2ccc(O)cc2O)oc2cc(O)cc(O)c12` [morin]: the “binding sites with α-glucosidase” value is “ASP-60, ASP-199, HIS-203, GLN-256, and GLN-328”.

For the compound `O=C(CCc1ccc(O)cc1)c1c(O)cc(O[C@@H]2O[C@H](CO)[C@@H](O)[C@H](O)[C@H]2O)cc1O` [trilobatin], the “binding sites with α-glucosidase” value is “ASP-60, ASP-199, HIS-203, GLN-256, and GLN-328”.

The target in the next series is α-glucosidase (Saccharomyces cerevisiae, UniProt P53341). Particulars: Binglangjiang buffalo casein peptides. The source says:
Bioactive peptides are composed of 2–20 amino acids. These peptides have no obvious activity in the macromolecular state but show anti-diabetes, anti-hypertension, anti-inflammation, anti-cancer, and other biological activities after degradation. Enzymatic hydrolysis is commonly employed in both research and industrial settings for the preparation of bioactive peptides due to its favorable attributes, including gentle reaction conditions and the ability to effectively regulate the reaction process. […] Although the precise chemical responsible for this benefit is unknown, the ancient Chinese medicinal book Qi Min Yao Shu referenced the effect of mulberry leaf as tr ... || To further verify the synthesis of peptides, in vitro activity tests were carried out. […] […].
In the case of “FALPQYLK [Binglangjiang buffalo casein peptide]”, the “IC50 ratio of peptide to acarbose” value is listed as “approximately 2.5”. Take “RNAVPITPTLNR [Binglangjiang buffalo casein peptide]”: the “IC50 ratio of peptide to acarbose” value is on record as “approximately 2.5”. Turning to “TKVIPYVRYL [Binglangjiang buffalo casein peptide]”, the “IC50 ratio of peptide to acarbose” value is “approximately 2.5”. As to “YLGYLEQLLR [Binglangjiang buffalo casein peptide]”, the “IC50 ratio of peptide to acarbose” value is “approximately 2.5”.

Still in this series, the particulars now being: Ginkgo biloba seed protein peptides.
Regarding “LSMSFPPF [peptide from Ginkgo biloba seed protein]”, the “IC50 ratio of peptide to acarbose” value is reported as 1.22. As to “MPGPPSD [peptide from Ginkgo biloba seed protein]”, the “IC50 ratio of peptide to acarbose” value is reported as 2.54.

For the compound “VPKIPPP [peptide from Ginkgo biloba seed protein]”, the “IC50 ratio of peptide to acarbose” value is 3.89.

Still in this series, the particulars now being: in words; ref 9 (LDLQR, AGGFR, LDNFR), 11 (RVPSLM, KLPGF), ref 12 (SEDSSEVDIDLGNLG), ref 13 (TTGGKGGK), ref 14 (KETTTIVR).
As for AGGFR [wheat germ peptide], the “α-glucosidase inhibition in vitro” value is given as “excellent”. Regarding “KETTTIVR [spicy wood seed protein-derived peptide]”, the “α-glucosidase inhibition in vitro” value is listed as “excellent”. As for “KLPGF [egg white protein-derived peptide]”, the “α-glucosidase inhibition in vitro” value is “excellent”. In the case of LDLQR [wheat germ peptide], the “α-glucosidase inhibition in vitro” value was “excellent”.

Take LDNFR [wheat germ peptide]: the “α-glucosidase inhibition in vitro” value is “excellent”. Consider “RVPSLM [egg white protein-derived peptide]”, for which the “α-glucosidase inhibition in vitro” value is listed as “excellent”. For “SEDSSEVDIDLGNLG [sericin-derived peptide]”, the “α-glucosidase inhibition in vitro” value is listed as “excellent”. “TTGGKGGK [black bean protein-derived peptide]”: the “α-glucosidase inhibition in vitro” value is “excellent”.

The same series, now with this note: wheat germ peptides.
For AGGFR [wheat germ peptide], the “IC50 ratio of peptide to acarbose” value is 2.54.

In the case of LDLQR [wheat germ peptide], the “IC50 ratio of peptide to acarbose” value was 2.52. Take LDNFR [wheat germ peptide]: the “IC50 ratio of peptide to acarbose” value was 2.70.
